Values of other authors, collected in patent US7892575B2, “Orodispersible pharmaceutical composition for oromucosal or sublingual administration of agomelatine” (Les Laboratoires Servier, priority 2005, dated 2011).

Conditions: humans

In the case of `COc1ccc2cccc(CCNC(C)=O)c2c1` [agomelatine, N-[2-(7-methoxy-1-naphthyl)ethyl]acetamide], the “bioavailability by the oral route in relation to the parenteral route” value is listed as “very low”.
